In patent publication US20250352539A1, “COMBINATION THERAPY FOR TREATING CANCER” (AstraZeneca AB, priority 2022, published 2025):

What was measured:
Type in all cases: cell-based
[1] = test system: DU4475; assay: 10-day Cell Titre Glo combination screen; settings: Homo sapiens, DU-4475; DU4475 breast; monotherapy; read-out: mono AC50
From the text: (§1) The Highest Single Agent (HSA) model is used to determine a combination's synergy score (and is based simply on the intuition that if a combination's effect exceeds the effect level of each of its constituents, there must be some combination interaction). Mathematically, the HSA model describes simple superposition of the single agent curves:
(§2) where CX,Y are the concentrations of the X and Y compound, and IX and IY are inhibitions of the single agents at CX,Y. It is also useful to calculate a volume score (HSA Volume) between the data and the HSA surface to characterise the overall strength of combination effects. Empirically derived combination matrices are compared to their respective HSA additivity models constructed from experimentally collected single agent dose response curves. Summation of this excess additivity across the dose response matrix is referred to HSA Volume.
(§3) Potency shifting can also be scored using combination index (CI). For a chosen iso-effect level (ICut), CI is calculated as: […]
(§4) where (CX/ECX) for a particular data point is the ratio of the X compound's measured concentration to its effective concentration at the chosen effect level. The CI is a rough estimate of how much drug was needed in combination relative to the single agent doses required to achieve the chosen effect level. CI values in the range of 0.5-0.7 are typical for in vitro measurements of current clinical combinations. The CI error (σCI) is calculated using standard error propagation through the CI calculation based on the isobologram errors.
(§5) This combination screen was a 10-day assay using Cell Titre Glo as the readout for viability.
(§6) The assay was performed in 384 well plates, with 1 cell line and 4 drug-drug combinations per plate dosed in a 6×6 matrix. A day zero reading was measured to determine growth inhibition. GenedataScreener was used to input the raw values for every well, and the software was programmed to normalise the values to the day zero and DMSO control values.
(§7) The CellTiter-Glo® Luminescent Cell Viability Assay is a homogeneous method to determine the number of viable cells in culture based on quantitation of the ATP present, which signals the presence of metabolically active cells. It relies on the properties of a proprietary thermostable luciferase (Ultra-Glo™ Recombinant Luciferase), which generates a stable “glow-type” luminescent signal and improves performance across a wide range of assay conditions.
(§8) The following information was reported: Synergy scores (HSA); combination index values; AC50 (half-maximal activity concentration) monotherapy values.

[2] = test system: HCC1395; assay: 10-day Cell Titre Glo combination screen; settings: Homo sapiens; HCC1395 breast; monotherapy; read-out: mono AC50
From the text: as §1, §2, §3, §4, §5, §6, §7, §8

[3] = test system: HCC1569; assay: 10-day Cell Titre Glo combination screen; settings: Homo sapiens; HCC1569 breast; monotherapy; read-out: mono AC50
From the text: as §1, §2, §3, §4, §5, §6, §7, §8

[4] = test system: HCC15; assay: 10-day Cell Titre Glo combination screen; settings: HCC15 lung; monotherapy; read-out: mono AC50
From the text: as §1, §2, §3, §4, §5, §6, §7, §8

[5] = test system: MCF7 T52; assay: 10-day Cell Titre Glo combination screen; settings: Homo sapiens; MCF7 T52 breast; monotherapy; read-out: mono AC50
From the text: as §1, §2, §3, §4, §5, §6, §7, §8

[6] = test system: NCI-H1573; assay: 10-day Cell Titre Glo combination screen; settings: Homo sapiens, NCI-H1573, 240 h, NCI-H1573 lung; monotherapy; read-out: mono AC50
From the text: as §1, §2, §3, §4, §5, §6, §7, §8

[7] = test system: NCI-H1666; assay: 10-day Cell Titre Glo combination screen; settings: Homo sapiens; NCI-H1666 lung; monotherapy; read-out: mono AC50
From the text: as §1, §2, §3, §4, §5, §6, §7, §8

[8] = test system: NCI-H1792; assay: 10-day Cell Titre Glo combination screen; settings: Homo sapiens; NCI-H1792 lung; monotherapy; read-out: mono AC50
From the text: as §1, §2, §3, §4, §5, §6, §7, §8

[9] = test system: NCI-H23; assay: 10-day Cell Titre Glo combination screen; settings: Homo sapiens; NCI-H23 lung; monotherapy; read-out: mono AC50
From the text: as §1, §2, §3, §4, §5, §6, §7, §8

[10] = test system: SUM149PT 53BP1 KO cell pools; assay: Clonogenic proliferation assay (14 days, SRB)
Description: (§9) Parental BRCA1 mutant SUM149PT breast cancer cell line (Elstrodt 2006) were obtained from AstraZeneca Cell Bank at Alderley Park, Macclesfield. Cells were routinely grown in Ham's F12 media containing 5% foetal calf serum, 1% glutamine (2 mM), 500 ng/ml hydrocortisone and 5% insulin. SUM149PT 53BP1 WT (CNTR) and 53BP1 null (KO) cell pools were generated by CRISPR-Cas9 technology. Short guide (sg) RNA targeting TP53BP1 on exon 10 (GAGTAGATCGGAAAGCATC) and a non-targeting CNTR guide (GAGTAGATCGGAAAGCATC) were designed and cloned into a lentiviral vector containing a mClover3 cassette for green fluorescence signal and hygromycin cassette for selection (pKLV2-U6gRNA (Bbsl)-EF1a-mClover3-T2A-HygR-W). Lentiviruses were generated from both KO and CNTR (sg) RNA and Cas9 (pKLVEF1a-Cas9Bsd-W) plasmids and parental cells were transduced first with Cas9 lentiviruses followed by blasticidin selection and then with KO and CNTR lentiviruses followed by hygromycin selection. Loss of 53BP1 was verified by analysing 53BP1 protein expression from whole cell lysates by western blotting (Novus, NB100-304, 1:1000 dilution).
(§10) Cells were seeded onto 6-well plates, three replicates per cell line, and 24 hours later the cells were dosed with AZD6738/AZD5305. For monotherapies the cells were dosed with a 6-point concentration response of AZD6738 (0 to 0.64 μM) or AZD5305 (0 to 1 μM). For combination treatments single dose of AZD5305 (10 nM) was used with a 5-point concentration response of AZD6738 (0 to 0.64 μM) for 53BP1 KO cells. Cells were grown for 14 days for colony formation without media changes. Cells were fixed with 10% TCA (Tricloroacetic acid). 14 days after dosing any formed colonies were stained with 0.057% SRB (sulforhodamine B acid), imaged with GelCount™ (Oxford OPTRONIX) at 600 dpi resolution and the stained colony growth intensity was measured using plate reader with OD @[…]. Dose response curves were generated and IC50 concentrations were calculated using GraphPad PRISM software.

[11] = test system: SUM149PT 53BP1 WT (CNTR) cells; assay: Clonogenic proliferation assay (14 days, SRB); settings: Homo sapiens; SUM149PT 53BP1 WT (CNTR); monotherapy; read-out: IC50, clonogenic growth
Description: as §9, §10

[12] = test system: DMS53; assay: 10-day Cell Titre Glo combination screen; settings: Homo sapiens, DMS-53; DMS53 lung; monotherapy; read-out: mono AC50
From the text: as §1, §2, §3, §4, §5, §6, §7, §8

[13] = test system: NCI-H1650; assay: 10-day Cell Titre Glo combination screen; settings: Homo sapiens, NCI-H1650, NCI-H1650 lung; monotherapy; read-out: mono AC50
From the text: as §1, §2, §3, §4, §5, §6, §7, §8

[14] = test system: NCI-H2009; assay: 10-day Cell Titre Glo combination screen; settings: Homo sapiens; NCI-H2009 lung; monotherapy; read-out: mono AC50
From the text: as §1, §2, §3, §4, §5, §6, §7, §8

[15] = test system: NCI-H322; assay: 10-day Cell Titre Glo combination screen; settings: NCI-H322, NCI-H322 lung; monotherapy; read-out: mono AC50
From the text: as §1, §2, §3, §4, §5, §6, §7, §8

[16] = test system: PC-9; assay: 10-day Cell Titre Glo combination screen; settings: Homo sapiens; PC-9 lung; monotherapy; read-out: mono AC50
From the text: as §1, §2, §3, §4, §5, §6, §7, §8

Row | SMILES | AC50 [1] | AC50 [2] | AC50 [3] | AC50 [4] | AC50 [5] | AC50 [6] | AC50 [7] | AC50 [8] | AC50 [9] | growth inhibition as monotherapy ([10]; 10 nM, cell pool not given) | sensitivity, clonogenic growth ([10]; SUM149PT 53BP1 KO, monotherapy) | IC50 [11] | AC50 [12] | AC50 [13] | AC50 [14] | AC50 [15] | AC50 [16]
1 | CCc1cc2ncc(CN3CCN(c4ccc(C(=O)NC)nc4)CC3)cc2[nH]c1=O [AZD5305, 5-{4-[(7-ethyl-6-oxo-5,6-dihydro-1,5-naphthyridin-3-yl)methyl]piperazin-1-yl}-N-methylpyridine-2-carboxamide] | 120 nM | 5.73 nM | 22100 nM | 7.7 nM | 41.8 nM | 47.7 nM | 9.36 nM | 24.5 nM | 4.13 nM | does not show growth inhibition | completely resistant | ~6 nM | – | – | – | – | –
2 | CCc1cc2ccc(CN3CCN(c4ncc(C)n4C)CC3)cc2[nH]c1=O [AZ14114554, 7-((4-(1,5-dimethyl-1H-imidazol-2-yl)piperazin-1-yl)methyl)-3-ethylquinolin-2 (1H)-one] | – | – | – | – | – | 19.6 nM | – | – | – | – | – | – | 62.2 nM | 63.2 nM | 105 nM | 1.23 nM | 97100 nM
